Structures are written as SMILES.

In this experiment the target is human neprilysin (EC 3.4.24.11; NEP) (Homo sapiens (Human), UniProt P08473). The experiment is described as follows: In vitro enzyme inhibition assay at human NEP (fluorogenic peptide substrate). The experiment is classed as biochemical. The following applies: pKi values at human NEP, recombinant human NEP. Summed up: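 Recombinant human NEP preincubated 30 min at 37 °C with compound (10 μM down to pM), then 10 μM Mca-D-Arg-Arg-Leu-Dap-(Dnp)-OH in 50 mM HEPES pH 7.5, 100 mM NaCl, 0.01% Tween-20, 10 μM ZnSO4. Stopped after 20 min with acetic acid; fluorescence Ex320/Em405; Ki by nonlinear fit, reported as pKi.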
Chain of human neprilysin (EC 3.4.24.11; NEP) (P08473 52-750): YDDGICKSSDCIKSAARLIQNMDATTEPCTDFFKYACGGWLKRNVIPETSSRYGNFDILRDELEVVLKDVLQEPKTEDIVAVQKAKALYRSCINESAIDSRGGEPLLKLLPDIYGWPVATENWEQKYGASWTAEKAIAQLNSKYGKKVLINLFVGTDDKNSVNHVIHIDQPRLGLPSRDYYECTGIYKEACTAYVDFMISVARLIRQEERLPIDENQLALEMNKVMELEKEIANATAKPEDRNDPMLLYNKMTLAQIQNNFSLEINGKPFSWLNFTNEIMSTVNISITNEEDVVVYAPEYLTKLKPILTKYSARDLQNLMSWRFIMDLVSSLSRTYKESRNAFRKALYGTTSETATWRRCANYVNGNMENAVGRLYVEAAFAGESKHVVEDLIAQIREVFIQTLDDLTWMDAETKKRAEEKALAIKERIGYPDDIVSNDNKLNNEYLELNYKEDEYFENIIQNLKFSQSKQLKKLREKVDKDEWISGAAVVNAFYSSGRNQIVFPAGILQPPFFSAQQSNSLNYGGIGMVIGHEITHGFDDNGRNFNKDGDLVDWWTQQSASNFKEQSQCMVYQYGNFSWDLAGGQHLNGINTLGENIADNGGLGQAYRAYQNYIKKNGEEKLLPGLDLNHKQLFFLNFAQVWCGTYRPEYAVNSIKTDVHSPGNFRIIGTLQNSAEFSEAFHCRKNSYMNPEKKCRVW
Take `COc1ccccc1C(=O)Nc1cc(C(=O)N[C@H](Cc2ccc(-c3cccc(Cl)c3)cc2)C[C@@H](O)C(=O)O)[nH]n1` [Example 18-31, (2R,4R)-5-(3′-Chloro-biphenyl-4-yl)-2-hydroxy-4-{[5-(2-methoxy-benzoylamino)-2H-pyrazole-3-carbonyl]-amino}-pentanoic acid]: the pKi is reported as at least 9.0. On to `CC(O)c1cc(C(=O)N[C@H](Cc2ccc(-c3cccc(Cl)c3)cc2)C[C@@H](O)C(=O)O)[nH]n1` (stereo partly drawn) [Example 18-32, (2R,4R)-5-(3′-Chloro-biphenyl-4-yl)-2-hydroxy-4-{[5-(1-hydroxy-ethyl)-2H-pyrazole-3-carbonyl]-amino}-pentanoic acid], for which the pKi is listed as at least 9.0. The same measure, in the same setting: the figure for `O=C(N[C@H](Cc1ccc(-c2cccc(Cl)c2)cc1)C[C@@H](O)C(=O)O)c1cc(-c2cccnc2)[nH]n1` [Example 18-34, (2R,4R)-5-(3′-Chlorobiphenyl-4-yl)-2-hydroxy-4-[(5-pyridin-3-yl-1H-pyrazole-3-carbonyl)-amino]-pentanoic acid] is at least 9.0. Same read-out and setting: next, `Cn1nc(C(=O)N[C@H](Cc2ccc(-c3cccc(Cl)c3)cc2)C[C@@H](O)C(=O)O)cc1O` [Example 18-35, (2R,4R)-5-(3′-Chloro-biphenyl-4-yl)-2-hydroxy-4-[(5-hydroxy-1-methyl-1H-pyrazole-3-carbonyl)-amino]-pentanoic acid]: at least 9.0; `O=C(N[C@H](Cc1ccc(-c2cccc(Cl)c2)cc1)C[C@@H](O)C(=O)O)c1cc(O)n(-c2ccccn2)n1` [Example 18-37, (2R,4R)-5-(3′-Chloro-biphenyl-4-yl)-2-hydroxy-4-[(5-hydroxy-1-pyridin-2-yl-1H-pyrazole-3-carbonyl)-amino]-pentanoic acid]: at least 9.0. As for `O=C(N[C@H](Cc1ccc(-c2cccc(Cl)c2)cc1)C[C@@H](O)C(=O)O)c1cc(O)n(-c2ccccc2F)n1` [Example 18-38, (2R,4R)-5-(3′-Chloro-biphenyl-4-yl)-4-{[1-(2-fluoro-phenyl)-5-hydroxy-1H-pyrazole-3-carbonyl]-amino}-2-hydroxy-pentanoic acid], the pKi is on record as at least 9.0. With `O=C(N[C@@H](Cc1ccc(-c2cccc(Cl)c2)cc1)C[C@@H](O)C(=O)O)c1cc(O)n(-c2cccc(Cl)c2)n1` [Example 18-39, (2R,4S)-5-(3′-Chloro-biphenyl-4-yl)-4-{[1-(3-chloro-phenyl)-5-hydroxy-1H-pyrazole-3-carbonyl]-amino}-2-hydroxy-pentanoic acid], the pKi is on record as at least 9.0.

For `CCOc1cc(C(=O)N[C@H](Cc2ccc(-c3cccc(Cl)c3)cc2)C[C@@H](O)C(=O)O)n[nH]1` [Example 18-40, (2R,4R)-5-(3′-Chloro-biphenyl-4-yl)-4-[(5-ethoxy-1H-pyrazole-3-carbonyl)-amino]-2-hydroxy-pentanoic acid], the pKi is reported as at least 9.0. On the same count and under the same terms, next, `O=C(N[C@H](Cc1ccc(-c2cccc(Cl)c2)cc1)C[C@@H](O)C(=O)O)c1cc(=O)n(-c2ccccc2)[nH]1` [Example 18-41, (2R,4R)-5-(3′-Chlorobiphenyl-4-yl)-2-hydroxy-4-[(5-oxo-1-phenyl-2,5-dihydro-1H-pyrazole-3-carbonyl)-amino]-pentanoic acid]: at least 9.0; `O=C(N[C@H](Cc1ccc(-c2cccc(Cl)c2)cc1)C[C@@H](O)C(=O)O)c1nn(-c2cccc(Cl)c2)c(=O)[nH]1` [Example 18-42, (2R,4R)-5-(3′-Chloro-biphenyl-4-yl)-4-{[1-(3-chloro-phenyl)-5-oxo-4,5-dihydro-1H-[1,2,4]triazole-3-carbonyl]-amino}-2-hydroxy-pentanoic acid]: at least 9.0. For `O=C(N[C@H](Cc1ccc(-c2cccc(Cl)c2)cc1)C[C@@H](O)C(=O)O)c1nn(-c2ccccc2Cl)c(=O)[nH]1` [Example 18-43, (2R,4R)-5-(3′-Chloro-biphenyl-4-yl)-4-{[1-(2-chloro-phenyl)-5-oxo-4,5-dihydro-1H-[1,2,4]triazole-3-carbonyl]-amino}-2-hydroxy-pentanoic acid], the pKi is given as at least 9.0. `O=C(N[C@H](Cc1ccc(-c2cccc(Cl)c2)cc1)C[C@@H](O)C(=O)O)c1nn(-c2ccc(F)cc2)c(=O)[nH]1` [Example 18-44, (2R,4R)-5-(3′-Chloro-biphenyl-4-yl)-4-{[1-(4-fluoro-phenyl)-5-oxo-4,5-dihydro-1H-[1,2,4]triazole-3-carbonyl]-amino}-2-hydroxy-pentanoic acid]: the pKi was at least 9.0. Turning to `O=C(N[C@H](Cc1ccc(-c2cccc(Cl)c2)cc1)C[C@@H](O)C(=O)O)c1nnc(C(F)(F)F)[nH]1` [Example 18-45, (2R,4R)-5-(3′-Chlorobiphenyl-4-yl)-2-hydroxy-4-[(5-trifluoromethyl-4H-[1,2,4]triazole-3-carbonyl)-amino]-pentanoic acid], the negative logarithm of the Ki (pKi) is recorded as at least 9.0.

As to `O=C(N[C@H](Cc1ccc(-c2cccc(Cl)c2)cc1)C[C@@H](O)C(=O)O)c1n[nH]c(Cl)n1` [Example 18-46, (2R,4R)-5-(3′-Chlorobiphenyl-4-yl)-4-[(5-chloro-1H-[1,2,4]triazole-3-carbonyl)-amino]-2-hydroxy-pentanoic acid], the pKi is at least 9.0. `O=C(N[C@H](Cc1ccc(-c2cccc(Cl)c2)cc1)C[C@@H](O)C(=O)O)c1nn(-c2ccccc2)c(=O)[nH]1` [Example 18-47, (2R,4R)-5-(3′-Chlorobiphenyl-4-yl)-2-hydroxy-4-[(5-oxo-1-phenyl-4,5-dihydro-1H-[1,2,4]triazole-3-carbonyl)-amino]-pentanoic acid]: the pKi is on record as at least 9.0. Regarding `O=C(N[C@H](Cc1ccc(-c2cccc(Cl)c2)cc1)C[C@@H](O)C(=O)O)c1ccc(=O)n(Cc2ccccc2)n1` [Example 18-48, (2R,4R)-4-[(1-Benzyl-6-oxo-1,6-dihydro-pyridazine-3-carbonyl)-amino]-5-(3′-chlorobiphenyl-4-yl)-2-hydroxy-pentanoic acid], the inhibitory constant (Ki) is 1.26 to 10 nM. On to `O=C(N[C@H](Cc1ccc(-c2cccc(Cl)c2)cc1)C[C@@H](O)C(=O)O)c1ccc(=O)n(-c2ccccc2)n1` [Example 18-49, (2R,4R)-5-(3′-Chlorobiphenyl-4-yl)-2-hydroxy-4-[(6-oxo-1-phenyl-1,6-dihydro-pyridazine-3-carbonyl)-amino]-pentanoic acid], for which the Ki was 1.26 to 10 nM. In the case of `O=C(N[C@H](Cc1ccc(-c2cccc(Cl)c2)cc1)C[C@@H](O)C(=O)O)c1ccc(O)nn1` [Example 18-50, (2R,4R)-5-(3′-Chlorobiphenyl-4-yl)-2-hydroxy-4-[(6-hydroxy-pyridazine-3-carbonyl)-amino]-pentanoic acid], the pKi is at least 9.0.

Take `O=C(N[C@H](Cc1ccc(-c2cc(Cl)ccc2Cl)cc1)C[C@@H](O)C(=O)O)c1cn(O)nn1` [Example 19-1, (2R,4R)-5-(2′,5′-Dichlorobiphenyl-4-yl)-2-hydroxy-4-[(1-hydroxy-1H-[1,2,3]triazole-4-carbonyl)-amino]-pentanoic acid]: the pKi was at least 9.0. Turning to `O=C(N[C@H](Cc1ccc(-c2cc(Cl)ccc2F)cc1)C[C@@H](O)C(=O)O)c1cn(O)nn1` [Example 19-6, (2R,4R)-5-(5′-Chloro-2′-fluorobiphenyl-4-yl)-2-hydroxy-4[(1-hydroxy-1H-[1,2,3]triazole-4-carbonyl)-amino]-pentanoic acid], the pKi is reported as at least 9.0. Take `Cc1ccc(Cl)cc1-c1ccc(C[C@H](C[C@@H](O)C(=O)O)NC(=O)c2cn(O)nn2)cc1` [Example 19-12, (2R,4R)-5-(5′-Chloro-2′-methyl-biphenyl-4-yl)-2-hydroxy-4-[(1-hydroxy-1H-[1,2,3]triazole-4-carbonyl)-amino]-pentanoic acid]: the pKi is reported as at least 9.0.

On to `COc1ccccc1-c1ccc(C[C@H](C[C@@H](O)C(=O)O)NC(=O)c2cn(O)nn2)cc1` [Example 19-17, (2R,4R)-2-Hydroxy-4-[(1-hydroxy-1H-[1,2,3]triazole-4-carbonyl)-amino]-5-(2′-methoxy-biphenyl-4-yl)-pentanoic acid], for which the pKi is reported as at least 9.0. For `CC(=O)OCOn1nncc1C(=O)N[C@H](Cc1ccc(-c2cc(Cl)ccc2F)cc1)C[C@@H](O)C(=O)O` [Example 19-18, (2R,4R)-4-[(3-Acetoxymethoxy-3H-[1,2,3]triazole-4-carbonyl)-amino]-5-(5′-chloro-2′-fluoro-biphenyl-4-yl)-2-hydroxy-pentanoic acid], the pKi is at least 9.0. As for `COc1cc(C(=O)N[C@H](Cc2ccc(-c3cc(Cl)ccc3F)cc2)C[C@@H](O)C(=O)O)on1` [Example 19-19, (2R,4R)-5-(5′-Chloro-2′-fluoro-biphenyl-4-yl)-2-hydroxy-4-[(3-methoxy-isoxazole-5-carbonyl)-amino]-pentanoic acid], the pKi is at least 9.0.

Regarding `O=C(N[C@H](Cc1ccc(-c2cc(Cl)ccc2F)cc1)C[C@@H](O)C(=O)O)c1nn(-c2ccccc2)c(=O)[nH]1` [Example 19-20, (2R,4R)-5-(5′-Chloro-2′-fluoro-biphenyl-4-yl)-2-hydroxy-4-[(5-oxo-1-phenyl-4,5-dihydro-1H-[1,2,4]triazole-3-carbonyl)-amino]-pentanoic acid], the pKi was at least 9.0. Regarding `CC(=O)OCOn1nnc2ccc(C(=O)N[C@H](Cc3ccc(-c4cc(Cl)ccc4Cl)cc3)C[C@@H](O)C(=O)O)cc21` [Example 19-21, (2R,4R)-4-[(3-Acetoxymethoxy-3H-benzotriazole-5-carbonyl)-amino]-5-(2′,5-dichloro-biphenyl-4-yl)-2-hydroxy-pentanoic acid], the Ki is at most 1 nM. As to `O=C(N[C@H](Cc1ccc(-c2ccccc2)cc1Cl)C[C@@H](O)C(=O)O)c1c[nH]nn1` [Example 20-1, (2R,4R)-5-(3-Chlorobiphenyl-4-yl)-2-hydroxy-4-[(1H-[1,2,3]triazole-4-carbonyl)-amino]-pentanoic acid], the pKi is reported as at least 9.0. Turning to `O=C(N[C@H](Cc1ccc(-c2ccccc2)cc1Cl)C[C@@H](O)C(=O)O)c1cnn[nH]1` [Example 20-2, (2R,4R)-5-(3-Chlorobiphenyl-4-yl)-2-hydroxy-4-[(3H-[1,2,3]triazole-4-carbonyl)-amino]-pentanoic acid], the pKi is on record as at least 9.0.

Values taken from patent publication US10759813B2, “Neprilysin inhibitors” (THERAVANCE BIOPHARMA R&D IP, LLC, priority 2010, dated 2020).
